Measurements: US20130178523A1, “ANTI-CANCER COMPOSITIONS AND METHODS” (THE PENN STATE RESEARCH FOUNDATION, priority 2007, published 2013)
Where two headings read alike, the source gives them in different places.

What was measured:
UACC 903 cells [1] = experiment: Cell cycle analysis (propidium iodide, FACScan); settings: 24 hours
HT-1080 = experiment: MTS assay, fibrosarcoma cells; settings: Homo sapiens, HT-1080, 24 h
UACC 903 cells [2] = experiment: Apo-ONE caspase-3/7 apoptosis assay; format: cell-based, human; settings: 24 hours
Experimental: Apoptosis rates are measured using an Apo-ONE Homogenous caspase-3/7 Assay kit (Promega Corporation, Madison, Wis.).
The isoselenocyanate compounds promote apoptosis in melanoma cells. […] The graphs in FIGS. 3A and 3B show fold increase in caspase-3/7 activity relative to DMSO vehicle treated cells on the x-axis. Results represent average of 3 independent experiments. Bars indicate SEM.

UACC 903 melanoma cells [3] = experiment: Tumor development in nude mice, subcutaneous UACC 903, i.p. treatment
[4] = tested on: normal human fibroblasts (FF2441); experiment: IC50 in normal human fibroblasts
1205 Lu melanoma cells = experiment: MTS cell viability assay, 1205 Lu; settings: Homo sapiens, 24 h
Caco-2 = experiment: MTS assay, colon cancer cells; settings: Homo sapiens, Caco-2, 24 h
UACC 903 cells [5] = experiment: Topical application on melanoma tumor growth in vivo; set-up: species or system mice; settings: topical daily
Experimental: Chemopreventive or chemotherapeutic effect of ISC-4 on cutaneous tumor development is measured by subcutaneous injection of 1 million UACC 903 cells in 0.2 ml of DMEM −10% FBS above both the left and right rib cages of 4- to 6-week old female athymic nude mice using 24 g needles. […] The dimensions of the developing tumors are measured alternate days using calipers and the sizes estimated in cubic millimeters. A minimum of 5 mice per group is used for the topical treatment.
Chemopreventive or chemotherapeutic effect of ISC-4 on cutaneous tumor development is measured by subcutaneous injection of 1 million UACC 903 cells in 0.2 ml of DMEM −10% FBS above both the left and right rib cages of 4- to 6-week old female athymic nude mice using 24 g needles. 24 hours later, animals were treated daily with ISC-4 (12.5-50 μM), PBITC (12.5-50 μM), or vehicle control (acetone) for 3-4 weeks. The dimensions of the developing tumors are measured alternate days using calipers and the sizes estimated in cubic millimeters. A minimum of 5 mice per group was used for the topical treatment.

UACC 903 melanoma cells [6] = experiment: MTS cell viability assay, UACC 903; settings: Homo sapiens, UACC-903, 24 h
UACC 903 tumors = experiment: Proliferation/apoptosis rates in tumors (TUNEL, Ki-67)
[7] = Toxicity assessments in nude mice (blood parameters, histology); format: in vivo
Excerpt: Animals are sacrificed by CO2 asphyxiation and blood collected from each animal in plasma separator tubes with lithium heparin (BD Microtainer, BD, Franklin Lakes, N.J.) following cardiac puncture and analyzed for AST (aspartate aminotransferase), ALT, (alanyl aminotransferase), alkaline phosphatase, glucose and creatinine to ascertain liver, heart, kidney and pancreas related toxicity. For morphological examination of blood cells, whole blood is collected in microtainer tubes containing K2EDTA (BD Microtainer, BD, Franklin Lakes, N.J.) and RBC, WBC, lymphocytes, monocytes, eosinophils, platelets, total hemoglobin and hematocrit percentage analyzed. Blood is also microscopically examined for segregates, polychromatin bodies, and smudge cells. A portion of liver, heart, kidney, spleen, intestine pancreas and adrenal from each animal is formalin fixed and paraffin-embedded to examine toxicity-related changes in cell or organ morphology by H&E staining.

PC-3 = experiment: MTS assay, prostate cancer cells; settings: Homo sapiens, PC-3, 24 h
MDA-MB-231 = experiment: MTS assay, breast cancer cells; settings: Homo sapiens, MDA-MB-231, 24 h
[8] = tested on: Akt signaling pathway in melanoma cell line WM115; experiment: Western blot, Akt signaling pathway in WM115; settings: FIG. 10B
WM115 melanoma cells = experiment: MTS cell viability assay, WM115; settings: Homo sapiens, WM-115, 24 h
[9] = tested on: pAkt and downstream pPRAS40 in UACC 903 tumors; experiment: Western blot analysis of excised tumors; settings: day 13, 0.76 μmoles i.p. alternate days, versus DMSO or PBITC
[10] = tested on: Akt signaling pathway in melanoma cell line 1205 Lu; experiment: Western blot, Akt signaling pathway in 1205 Lu; settings: FIG. 10A
Akt signaling pathway = experiment: Western blot of Akt signaling pathway in cultured melanoma cells (FIG. 9); settings: 24 hours
[11] = tested on: GFP tagged UACC 903 human melanoma cells; experiment: Topical application on reconstructed human skin with melanoma cells; settings: 12.5 and 25 μM topical; compared to DMSO treated or untreated skins
UACC 903 cells [12] = experiment: BrdU ELISA cellular proliferation; format: cell-based, human; settings: 24 hours
Experimental: Proliferation rate is measured using a BrdU ELISA kit (Roche Applied Sciences, Indianapolis, Ind.).
BrdUrd is used to label cells for 4-6 hours. At 15 μM concentration, ISC-4 and ISC-6 reduced UACC 903 cellular proliferative potential by ˜80-90% compared to controls. Results represent the average of 3 independent experiments; bars represent SEM. The average value is represented as the percentage of control DMSO treated cells.

T-98-G = experiment: MTS assay, glioblastoma cells; settings: Homo sapiens, T98G, 24 h
[13] = tested on: IGROV-1 (ovarian carcinoma); experiment: IC-50 in various cell lines (Table V), IGROV-1; format: cell-based; settings: Homo sapiens
[14] = tested on: FF2441 (fibroblast cells); experiment: IC-50 in various cell lines (Table V), FF2441; format: cell-based; settings: Homo sapiens
CaCO2 (Colon Carcinoma) = experiment: IC-50 in various cell lines (Table V), CaCO2; format: cell-based; settings: Homo sapiens, Caco-2
UACC-903 (Melanoma) = experiment: IC-50 in various cell lines (Table V), UACC-903; format: cell-based; settings: Homo sapiens
PC-3 (Prostate) = experiment: IC-50 in various cell lines (Table V), PC-3; format: cell-based
1205LU (Melanoma) = experiment: IC-50 in various cell lines (Table V), 1205LU; format: cell-based; settings: Homo sapiens
A549 (lung) = experiment: IC-50 in various cell lines (Table V), A549; format: cell-based; settings: Homo sapiens
[15] = tested on: HT1080 (Soft Tissue Sarcoma); experiment: IC-50 in various cell lines (Table V), HT1080; format: cell-based; settings: Homo sapiens, HT-1080
MDA-MB 231 (breast) = experiment: IC-50 in various cell lines (Table V), MDA-MB 231; format: cell-based; settings: Homo sapiens
UACC 903M cells = experiment: IC50 of NAC conjugate in UACC 903M cells; format: cell-based

SMILES: [Se]=C=NCCCCc1ccccc1 [ISC-4, Phenylbutyl Isoselenocyanate]
- G0/G1 cell population (UACC 903 cells [1]; 5 μM): 59.4
- G2/M cell population (UACC 903 cells [1]; 5 μM): 16.3
- S cell population (UACC 903 cells [1]; 5 μM): 24.3
- subG0/G1 cell population (UACC 903 cells [1]; 5 μM): 2.9
- G0/G1 cell population (UACC 903 cells [1]; 10 μM): 41.6
- G2/M cell population (UACC 903 cells [1]; 10 μM): 29.4
- S cell population (UACC 903 cells [1]; 10 μM): 29.0
- subG0/G1 cell population (UACC 903 cells [1]; 10 μM): 12.3
- G0/G1 cell population (UACC 903 cells [1]; 15 μM): 35.5
- G2/M cell population (UACC 903 cells [1]; 15 μM): 28.0
- S cell population (UACC 903 cells [1]; 15 μM): 36.5
- subG0/G1 cell population (UACC 903 cells [1]; 15 μM): 22.8
- IC50 (HT-1080): 11 ± 1 µM
- cellular apoptosis with increasing concentrations (caspase-3/7 activity, words) (UACC 903 cells [2]; 5, 10, 15 μM): increase cellular apoptosis
- fold more effective than PBITC at inducing apoptosis (UACC 903 cells [2]; caspase-3/7 activity, 5-15 μM): ~2 fold
- melanoma tumor volume (UACC 903 melanoma cells [3]; 0.76 μmoles (3 ppm selenium) i.p. thrice per week, day 24, doses 3× lower than isothiocyanates): reduce tumor volume
- fold greater sensitivity of melanoma cells (UACC 903) than normal fibroblasts (FF2441) ([4]; 24 hours): 3 fold
- IC50 ([4]; Homo sapiens, FF2441, 24 h, read-out: IC50 (drug concentration required to kill fibroblasts)): 37.5 µM
- IC50 (1205 Lu melanoma cells): 11 µM
- IC50 (Caco-2): 12 ± 3 µM
- systemic toxicity by body weight (UACC 903 cells [5]; 0.063-0.19 μmoles equivalent to 0.25-0.75 ppm): no systemic toxicity
- tumor size (UACC 903 cells [5]; 0.063-0.19 μmoles equivalent to 0.25-0.75 ppm, versus vehicle or PBITC): decreased tumor size
- systemic toxicity by body weight (UACC 903 cells [5]; 12.5-50 μM): no systemic toxicity
- reduction of melanoma tumor development (UACC 903 cells [5]; 12.5-50 μM, compared to PBITC or vehicle control): ~50%
- IC50 (UACC 903 melanoma cells [6]): 12 ± 3 µM
- proliferating tumor cells (Ki-67, words) (UACC 903 tumors; compared to PBITC, size and time matched tumors): slightly fewer proliferating tumor cells
- TUNEL positive (apoptotic) cells in tumors, fold versus DMSO or PBITC (UACC 903 tumors; tumors harvested at day 11 and 13, 3 ppm selenium i.p.): ~3 fold
- blood SGOT, SGPT, alkaline phosphatase, glucose and creatinine ([7]; 0.76 μmoles i.p. 3 times per week for 3 weeks, compared to vehicle DMSO): did not alter parameters
- histological examination of vital organ sections ([7]; hematoxylin and eosin stained, including the liver): did not significantly change cell morphology or organ structure
- basal urea nitrogen (BUN), creatinine and glucose levels ([7]; treated versus control animals): not significantly different
- IC50 (PC-3): 19 ± 1 µM
- IC50 (MDA-MB-231): 21 µM
- apoptosis indicated by cleaved PARP protein levels [8]: causes significant apoptosis
- IC50 (WM115 melanoma cells): 7 µM
- expression of downstream PRAS40 (phosphorylated) in tumor lysates ([9]; p<0.001): significantly decreased expression
- expression of phosphorylated (active) Akt in tumor lysates ([9]; p<0.05): significantly decreased expression
- apoptosis indicated by cleaved PARP protein levels [10]: causes significant apoptosis
- concentration completely inhibiting the Akt3 pathway (Western blot) (Akt signaling pathway): 10 µM
- level of apoptosis (cleaved PARP) versus PBITC (Akt signaling pathway): higher level of apoptosis
- decrease in tumor area occupied by melanoma cells [11]: ~80%
- proliferative potential with increasing concentrations (UACC 903 cells [12]; 5, 10, 15 μM): decreased proliferative potential
- fold more effective than PBITC or PHITC at inhibiting cellular proliferation (UACC 903 cells [12]; 5-15 μM): ~2 fold
- IC50 (T-98-G): 27 ± 1 µM

SMILES: C[S+]([O-])CCCCN=C=[Se] (stereo not drawn) [SFN Iso Se, 1-isoselenocyanato-4-(methylsulfinyl)butane]
- tumor development (UACC 903 melanoma cells [3]; 0.76 micromoles (3 ppm selenium) i.p., compared to controls, FIG. 14A): inhibition of tumor development
- IC50 ([13]; IGROV-1): > 50 µM
- IC50 ([14]; FF2441): > 50 µM
- IC50 (CaCO2 (Colon Carcinoma)): 16 ± 0.4 µM
- IC50 (UACC-903 (Melanoma); UACC-903): 17 ± 0.95 µM
- IC50 (PC-3 (Prostate)): 24.8 ± 0.58 µM
- IC50 (1205LU (Melanoma); 1205Lu): 39.2 ± 2 µM
- IC50 (A549 (lung); A549): 35 ± 1.7 µM
- IC50 [15]: 25.6 ± 1.82 µM
- IC50 (MDA-MB 231 (breast); MDA-MB-231): 20 ± 0.46 µM

SMILES: C[S+]([O-])CCCCN=C=S (stereo not drawn) [SFN, sulforaphane, reference compound]
- IC50 ([13]; IGROV-1 (ovarian carcinoma), read-out: IC-50): > 50 µM
- IC50 ([14]; FF2441 (fibroblast cells), read-out: IC-50): > 50 µM
- IC50 (CaCO2 (Colon Carcinoma); CaCO2 (Colon Carcinoma), read-out: IC-50): 48 ± 5.9 µM
- IC50 (UACC-903 (Melanoma); UACC-903 (Melanoma), read-out: IC-50): 40 ± 0.89 µM
- IC50 (PC-3 (Prostate); PC-3 (Prostate), read-out: IC-50): > 50 µM
- IC50 (1205LU (Melanoma); 1205LU (Melanoma), read-out: IC-50): > 50 µM
- IC50 (A549 (lung); A549 (lung), read-out: IC-50): 73 ± 3.6 µM
- IC50 ([15]; HT1080 (Soft Tissue Sarcoma), read-out: IC-50): > 50 µM
- IC50 (MDA-MB 231 (breast); MDA-MB 231 (breast), read-out: IC-50): 57 ± 5 µM

SMILES: CC(=O)NC(CSC(=[Se])NCCCCc1ccccc1)C(=O)O (stereo not drawn) [compound 5]
- IC50 (UACC 903M cells): 17 ± 2 µM
